Results on 1 compound are retold here after ChEMBL document CHEMBL4831557, “Parthenolide Derivatives as PKM2 Activators Showing Potential in Colorectal Cancer” (J Med Chem, 2021).

SMILES strings stand for the structures. Calls of active or inactive are those of the source. The rule behind the calls is not given here.

The target of assay [1] is T1, Pyruvate kinase PKM (Homo sapiens, UniProt P14618). Kind of assay: Activation of recombinant human PKM2 at 10 uM incubated 30 mins by fluorescence microplate reader analysis. The settings on record: filed as activator.
Target sequence in this assay (P14618 2-531 limits assumed): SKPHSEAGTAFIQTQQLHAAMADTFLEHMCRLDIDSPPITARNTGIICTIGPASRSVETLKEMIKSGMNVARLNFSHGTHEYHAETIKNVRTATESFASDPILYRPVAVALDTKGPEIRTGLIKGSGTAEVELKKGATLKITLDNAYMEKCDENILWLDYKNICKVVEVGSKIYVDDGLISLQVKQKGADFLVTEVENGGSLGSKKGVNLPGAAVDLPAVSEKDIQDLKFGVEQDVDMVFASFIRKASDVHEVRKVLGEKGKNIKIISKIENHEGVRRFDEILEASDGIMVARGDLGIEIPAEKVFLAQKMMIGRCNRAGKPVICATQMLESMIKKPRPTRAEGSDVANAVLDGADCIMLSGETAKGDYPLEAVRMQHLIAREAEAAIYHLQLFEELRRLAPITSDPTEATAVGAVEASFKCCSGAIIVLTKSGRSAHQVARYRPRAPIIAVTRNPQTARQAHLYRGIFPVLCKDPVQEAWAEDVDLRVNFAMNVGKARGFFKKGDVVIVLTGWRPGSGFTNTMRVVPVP
Assay [2] deals with T1, Pyruvate kinase PKM. Kind of assay: Activation of recombinant human PKM2 incubated 30 mins by fluorescence microplate reader analysis.
Target sequence in this assay (P14618 whole entry): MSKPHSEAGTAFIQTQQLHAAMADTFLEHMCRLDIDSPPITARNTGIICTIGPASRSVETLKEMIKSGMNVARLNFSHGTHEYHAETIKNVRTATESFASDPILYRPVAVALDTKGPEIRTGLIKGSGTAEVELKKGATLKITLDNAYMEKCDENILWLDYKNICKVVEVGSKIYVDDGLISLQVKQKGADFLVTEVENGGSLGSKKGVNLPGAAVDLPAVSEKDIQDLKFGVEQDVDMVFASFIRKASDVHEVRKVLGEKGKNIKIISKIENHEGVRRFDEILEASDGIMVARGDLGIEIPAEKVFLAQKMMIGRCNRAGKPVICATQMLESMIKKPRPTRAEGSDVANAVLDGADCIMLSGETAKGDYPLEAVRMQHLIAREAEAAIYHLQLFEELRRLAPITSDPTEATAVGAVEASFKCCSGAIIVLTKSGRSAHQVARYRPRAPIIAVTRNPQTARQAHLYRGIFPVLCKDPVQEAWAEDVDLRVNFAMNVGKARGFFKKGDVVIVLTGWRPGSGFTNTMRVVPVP
Assay [3] relates to HT-29. Kind of assay: Effect on total PKM2 protein expression in nucleus of human HT-29 cells at 0.45 to 1.8 uM after 48 hrs by Western blot analysis. Format: functional, cell-based. The settings on record: dose 0.45-1.8 µM.
The target in assay [4] is T1, Pyruvate kinase PKM. Kind of assay: Activation of PKM2 in human HT-29 cells assessed as increase in PKM2 tetramer formation at 0.6 to 1.2 uM after 48 hrs by Western blot analysis. Format: cell-based. To be noted: filed as activator, dose 0.6-1.2 µM.
Target sequence in this assay (P14618 2-531 limits assumed): as the sequence (P14618 2-531 limits assumed) above
Assay [5] concerns SW480. Kind of assay: Antiproliferative activity against human SW480 cells at 0.1 to 0.4 uM measured after 48 hrs by EdU staining based confocal microscopic analysis. Format: functional, cell-based. To be noted: dose 0.1-0.4 µM.
Assay [6] has as its system SW480. Kind of assay: Induction of intracellular ROS production in human SW480 cells at 0.2 to 0.6 uM incubated for 48 hrs by DCFH-DA staining based flow cytometry analysis. Format: functional, cell-based. To be noted: dose 0.2-0.6 µM.
Assay [7] deals with HT-29. Kind of assay: Effect on mitochondrial membrane potential in human HT-29 cells at 0.45 to 1.8 uM measured after 48 hrs by JC-1 staining based assay. Format: functional, cell-based. The settings on record: dose 0.45-1.8 µM.
In assay [8] the test system is HT-29. Kind of assay: Induction of apoptosis in human HT-29 cells assessed as decrease in PARP expression at 0.45 to 1.8 uM after 48 hrs by Western blotting analysis. Format: functional, cell-based. To be noted: dose 0.45-1.8 µM.
For assay [9], the system named is HT-29. Kind of assay: Induction of apoptosis in human HT-29 cells assessed as increase in cleaved PARP expression at 0.45 to 1.8 uM after 48 hrs by Western blotting analysis. Format: functional, cell-based. The settings on record: dose 0.45-1.8 µM.
The test system of assay [10] is SW480. Kind of assay: Antimigratory activity against human SW480 cells. Format: functional, cell-based.
For assay [11], the target named is T1, Pyruvate kinase PKM. Kind of assay: Inhibition of PKM2/STAT3 in human HT-29 cells assessed as reduction in bcl2 protein expression at 0.45 to 1.8 uM incubated for 48 hrs by Western blot analysis. Format: cell-based. The settings on record: dose 0.45-1.8 µM.
Target sequence in this assay (P14618 2-531 limits assumed): as above
Assay [12] has as its system HT-29. Kind of assay: Induction of apoptosis in PKM2 knock down human HT-29 cells at 0.45 to 1.8 uM. Format: functional, cell-based. To be noted: dose 0.45-1.8 µM.

Regarding `C=C1C(=O)O[C@H]2[C@H]1CC/C(COC(=O)c1ccc3nccc(Br)c3c1)=C/CC[C@@]1(C)O[C@@H]21`, the outcome in [1], in assay [3], in [4], in [5], in assay [6] and in [7] was Active. Also, the outcome in assay [8], in assay [9] and in assay [10] was Active. For the same compound, the half-maximal activity concentration (AC50) in [2] was found to be 86.3 nM. The inhibition result in [11] is “Active”. Also, the outcome in assay [12] was inactive.
